Key:
Format in all cases: cell-based
delF508-CFTR [1] = biological target: T1, delF508-CFTR (Homo sapiens, UniProt P13569, DEL508-508); assay: CFTR Western blot / biochemical rescue assay (band B to band C); conditions: CF human airway epithelial cells; 10 nM-10 μM; 10% serum containing medium
T1 construct: Unaltered CFBE41o− cells were used as the model; endogenous in cells; host or cells: CFBE41o- human CF bronchial epithelial cells (delF508 homozygous, not overexpressing)
Method: The method of profiling can also include determining the degree of CFTR glycosylation or CFTR protein processing. Optionally, this method can be performed using Western blot analysis. In this method, cells can be treated with the compound as described herein for a period of time (e.g., 24 hours) and, optionally, at multiple concentrations (e.g., 4 doses).
The method described in Example 3 was repeated with doses of the test compound of 0.01 μM, 0.1 μM, 1 μM, 10 μM, and 50 μM in Dulbecco's Modified Eagle Medium (DMEM) with 10% fetal bovine serum (FBS) for 48 hours at 37° C. Unaltered CFBE41o− cells were used as the model. A Western blot analysis of the lysates (10-50 μg total protein) was performed using the MM13-4 antibody for human CFTR to monitor changes in the CFTR protein. […] VX-809 and DMSO were used as the controls.
Cells were lysed in RIPA buffer (50 mM Tris-HCl, pH 7.4, 150 mM NaCl, 1% NP-40, 0.5% Deoxycholic Acid, 0.1% SDS) plus a cocktail of protease inhibitors (Roche; Basel, Switzerland). Protein concentrations in the cell lysates were measured by BCA Protein Assay using BSA as standard (Pierce; Rockford, Ill.). Proteins (25 μg) were resolved on an 8% SDS-PAGE gel and transferred to PDVF membranes. Total CFTR in the lysate was detected by immunoblotting using a specific CFTR antibody (MM13-4 from Upstate, 1:500 dilution).
The compounds were then subjected to a biochemical assay to define which hit compounds rescued the band B core glycosylated endoplasmic reticulum (ER) form of delF508-CFTR within the cell interior into the maturely glycosylated band C form within the secretory pathway for proteins and within the plasma membrane. Effective compounds stabilized the band B form of CFTR and caused more of this form to accumulate at the level of the ER.
By way of example, the delF508-CFTR mutation can be rescued from the ER with low temperature incubation for 48 hours (see examples in the blots as the positive control). The DMSO control is the simulated CF condition where the delF508-CFTR-expressing cells were grown at physiological temperature. […]

delF508-CFTR [2] = biological target: T1, delF508-CFTR; assay: SPQ halide-sensitive fluorescence dye profiling assay (rescue of halide efflux); conditions: for EC50: SPQ assay, 8-point concentration-response curve, CFBE41o− cells; for Emax: VX-809 at 3 μM treated as 100% efficacy; for Efficacy Comparison to 3 μM VX-809: compared to VX-809 at 3 μM; for potency and efficacy versus VX-809 in SPQ profiling: compounds advanced to further profiling
Method: The method of profiling can include detecting the rescue of halide efflux from a cell. The step of detecting a rescue of halide efflux from the cell can be monitored using the halide quenched dye 6-methoxy-N-(3-sulfopropyl)-quinolinium (SPQ, Molecular Probes Inc., Eugene, Oreg.). In this method, cells are treated with a compound as described herein for a period of time (e.g., 48 hours). The rescue or correction of halide efflux is then detected using the SPQ assay with the halide dye. […] Optionally, the halide efflux is chloride efflux. The method of screening can further comprise performing the method with multiple concentrations of the compound.
The compounds were initially subjected to the SPQ halide-sensitive fluorescence dye profiling assay for rescue or correction of membrane chloride ion permeability or transport with an 8-point concentration-response curve. The EC50 values for the compounds described herein were determined and compared to the efficacy of the industry standard Vertex 809 (VX-809; Vertex Pharmaceuticals, Cambridge, Mass.) at 3 μM, which is the maximally effective profiling dose for VX-809 (Table 1). The VX-809 dosage at 3 μM was treated as having 100% efficacy in the comparison.
To perform the SPQ high throughput screening assay, CFBE41o− cells were seeded into 96-well microtiter plates and were loaded with the fluorescent halide-sensitive dye, SPQ, in serum-containing culture medium. Certain wells were loaded with known positive control corrector molecules, including VX-809. The test compounds were loaded into wells and were tested in triplicate wells at a 10 μM dose and incubated over 48 hours at room temperature. During the 48 hour period, SPQ was absorbed. Plates were washed in a sodium chloride (NaCl) based Ringer and read once over two minutes to set the baseline SPQ fluorescence activity. Then, NaCl was replaced by sodium nitrate (NaNO3) based Ringer. The plates were read twice over four minutes. The primary high throughput screen (HTS) data were analyzed to detect any function of rescued delF508-CFTR under basal conditions. The plate was read up to two times to complete the SPQ HTS assay.

[3] = biological target: T2, delF508-CFTR chloride ion channels (Homo sapiens, UniProt P13569, DEL508-508); assay: Ussing chamber short-circuit current electrical assay; conditions: apical membrane of polarized CF human bronchial epithelium
T2 construct: functional delF508-CFTR chloride ion channels in the apical membrane of a polarized CF human bronchial epithelium; endogenous in cells
Method: The method of profiling can further include determining the degree of functional delF508-CFTR chloride ion channels in the apical cell membrane of cells (e.g., polarized CF human airway epithelial cells). This method can use electrophysiological methods, such as Ussing chamber-based measurement of short-circuit current, voltammeter-based measurement of open-circuit transepithelial voltage and transepithelial resistance, and patch-clamp electrophysiology.
An electrical assay was also performed to determine the functional rescue of delF508-CFTR to the apical cell membrane in a polarized epithelium using the compounds described herein. The metrics analyzed were the basal short-circuit Cl^− current, the change or delta Cl^− current stimulated by forskolin, the total stimulated Cl^− current (basal and forskolin), and the change or delta Cl^− current inhibited by GlyH101. For exemplary purposes, DMSO (100 nM) and VX-809 (100 nM equivalent) treatments were controls, and a CFCL corrector was tested (see FIG. 9).
Only high-resistance cell monolayers (>800 to 1,000 Ohms per cm^2) were used in the experiments. Basal short-circuit current (ISC) was measured and documented. Amiloride was added to the apical side of the Ussing chamber to block any contribution of ENaC or other sodium or cation channels under basal or stimulated conditions. The effect of amiloride was negligible under these cell culture conditions. In the continued presence of amiloride (100 μM), forskolin (10 μM) was added to both sides of the monolayer to selectively open any delF508-CFTR chloride channels in the apical cell membrane. This activation step uncovered any remaining corrected delF508-CFTR chloride ion channels in the apical membrane of the polarized CF human bronchial epithelium. The final step was the addition of a CFTR-selective inhibitor, GlyH101 (100 μM), to reverse the effect of forskolin.
Ussing chamber-derived short-circuit current data were obtained for Compounds C-15 and C-73 (see FIGS. 10 and 11). […] The same protocol of additions of drugs to the apical side of the Ussing chamber was performed on each cell monolayer as described above. CPT-cAMP and IBMX are equivalent and CFTR-specific agonists to forskolin. As described above, VX-770 is a CFTR potentiator drug added to activate any remaining corrected CFTR present.

T1 sequence (P13569 with tags, fused parts or gaps DEL508-508): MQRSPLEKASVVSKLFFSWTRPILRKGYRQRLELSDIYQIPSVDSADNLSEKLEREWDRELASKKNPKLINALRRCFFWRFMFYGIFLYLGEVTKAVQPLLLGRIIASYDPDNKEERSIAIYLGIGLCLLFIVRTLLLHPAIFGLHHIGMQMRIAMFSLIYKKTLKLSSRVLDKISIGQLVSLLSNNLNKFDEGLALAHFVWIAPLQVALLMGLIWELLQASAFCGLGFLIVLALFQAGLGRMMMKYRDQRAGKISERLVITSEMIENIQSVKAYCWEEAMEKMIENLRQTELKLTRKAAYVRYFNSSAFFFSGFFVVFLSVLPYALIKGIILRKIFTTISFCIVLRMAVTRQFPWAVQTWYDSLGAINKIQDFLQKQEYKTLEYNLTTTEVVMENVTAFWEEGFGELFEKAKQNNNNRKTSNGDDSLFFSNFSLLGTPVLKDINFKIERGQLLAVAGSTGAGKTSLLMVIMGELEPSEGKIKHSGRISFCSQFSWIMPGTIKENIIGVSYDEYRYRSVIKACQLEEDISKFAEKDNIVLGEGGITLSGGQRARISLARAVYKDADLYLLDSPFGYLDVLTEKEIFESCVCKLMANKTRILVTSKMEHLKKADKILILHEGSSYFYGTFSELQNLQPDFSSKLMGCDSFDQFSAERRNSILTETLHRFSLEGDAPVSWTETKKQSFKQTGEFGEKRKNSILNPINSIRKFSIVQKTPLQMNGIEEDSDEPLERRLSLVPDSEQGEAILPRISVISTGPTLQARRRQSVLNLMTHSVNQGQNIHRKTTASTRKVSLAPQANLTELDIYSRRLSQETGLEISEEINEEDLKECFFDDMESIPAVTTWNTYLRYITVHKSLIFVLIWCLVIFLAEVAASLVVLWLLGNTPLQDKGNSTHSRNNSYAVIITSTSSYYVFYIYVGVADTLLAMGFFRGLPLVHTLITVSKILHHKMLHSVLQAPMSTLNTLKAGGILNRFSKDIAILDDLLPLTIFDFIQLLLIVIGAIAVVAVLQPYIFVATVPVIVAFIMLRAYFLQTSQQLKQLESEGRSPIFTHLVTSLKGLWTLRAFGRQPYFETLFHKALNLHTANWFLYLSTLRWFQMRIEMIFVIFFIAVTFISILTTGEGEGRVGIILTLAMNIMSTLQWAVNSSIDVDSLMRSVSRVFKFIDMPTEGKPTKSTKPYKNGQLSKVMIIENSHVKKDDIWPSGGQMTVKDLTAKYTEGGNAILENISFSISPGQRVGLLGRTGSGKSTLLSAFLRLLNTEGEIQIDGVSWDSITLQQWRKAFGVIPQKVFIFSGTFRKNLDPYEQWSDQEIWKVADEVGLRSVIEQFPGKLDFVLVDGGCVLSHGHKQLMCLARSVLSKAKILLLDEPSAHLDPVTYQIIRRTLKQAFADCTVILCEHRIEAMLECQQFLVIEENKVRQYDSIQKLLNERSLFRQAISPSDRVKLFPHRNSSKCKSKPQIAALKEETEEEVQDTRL
T2 sequence (P13569 with tags, fused parts or gaps DEL508-508): as above

| Structure (SMILES) | biochemical correction of the delF508-CFTR protein (delF508-CFTR [1]) | EC50 (delF508-CFTR [2]) | Emax (delF508-CFTR [2]) | Efficacy Comparison to 3 μM VX-809 (delF508-CFTR [2]) | potency and efficacy versus VX-809 in SPQ profiling (delF508-CFTR [2]) | correction of functional delF508-CFTR chloride ion channels (short-circuit current) [3] |
| --- | --- | --- | --- | --- | --- | --- |
| Cc1c(C(=O)O)nnc2c(-c3ccc(Cl)cc3)cnn12 [Compound C-2] | biochemical correction | 1000 nM | 170% | 10-fold greater than VX-809 | superior potency and efficacy to VX-809 |  |
| CCOC(=O)c1nnc2c(-c3ccc(Cl)cc3)cnn2c1C [Compound C-12] | biochemical correction | 1000 nM | 120% | 7-fold greater than VX-809 | superior potency and efficacy to VX-809 |  |
| CCOC(=O)c1nnc2c(-c3ccc(Cl)c(Cl)c3)c(C)nn2c1C [Compound C-15] | biochemical correction | 300 nM | 120% | 10-fold greater than VX-809 | superior potency and efficacy to VX-809 | robust correction |

From patent US9676779B2, “Small molecule CFTR correctors” (DISCOVERYBIOMED, INC., priority 2012, dated 2017)
